Several values for one entry are separate records, joined by “and”; a condition that tells them apart may be missing. Equal values may be shown once. Where a name gives a salt, the structure may show the parent alone. Read-outs that look alike come from different tables or passages of the source.
Columns and labels:
Sprague-Dawley rats [1] = experiment: Forced swim test; type: in vivo; conditions: rat, three doses, 300 sec test
Sprague-Dawley rats [2] = experiment: Open field locomotor activity; type: in vivo; conditions: rat, 30 min after injection, 10 min test
Straub tail observation = type: in vivo; conditions: doses used in the behavioral studies
[3] = system: 129SvEv;C57Bl/6J F1 hybrid mice; experiment: Marble burying; type: in vivo; conditions: mouse, 10 min before 15 min test
[4] = system: opiate receptor binding sites labeled by [^3H]-naloxone; experiment: [3H]-naloxone binding competition assay in rat forebrain membranes
[5] = 100 mg/kg, sc; ref Pohland et al., 1971; cited from earlier work
rat α3β4 nAChRs = conditions: 2001, cited from earlier work; for block of rat α3β4 nAChR channels: ref Xiao et al.
[6] = system: 129SvEv;C57Bl/6J F1 hybrid mice; experiment: Forced swim test; type: in vivo, mouse; conditions: 6 min test; for immobility time vs vehicle: mouse
Sprague-Dawley rats [7] = type: in vivo; conditions: rat
human α3β4 nAChRs = human α3β4 nAChRs (Homo sapiens, UniProt P30926+P32297); experiment: 86Rb+ efflux assay, block of nicotine-stimulated channel function
[8] = system: 129SvEv;C57Bl/6J F1 hybrid mice; experiment: Home cage locomotor activity; type: in vivo; conditions: mouse, 0.5, 1, 5, 10 mg/kg i.p., 60 min
[9] = [3H]-naloxone sites, rat forebrain

Sequence of human α3β4 nAChRs (P32297 32-505): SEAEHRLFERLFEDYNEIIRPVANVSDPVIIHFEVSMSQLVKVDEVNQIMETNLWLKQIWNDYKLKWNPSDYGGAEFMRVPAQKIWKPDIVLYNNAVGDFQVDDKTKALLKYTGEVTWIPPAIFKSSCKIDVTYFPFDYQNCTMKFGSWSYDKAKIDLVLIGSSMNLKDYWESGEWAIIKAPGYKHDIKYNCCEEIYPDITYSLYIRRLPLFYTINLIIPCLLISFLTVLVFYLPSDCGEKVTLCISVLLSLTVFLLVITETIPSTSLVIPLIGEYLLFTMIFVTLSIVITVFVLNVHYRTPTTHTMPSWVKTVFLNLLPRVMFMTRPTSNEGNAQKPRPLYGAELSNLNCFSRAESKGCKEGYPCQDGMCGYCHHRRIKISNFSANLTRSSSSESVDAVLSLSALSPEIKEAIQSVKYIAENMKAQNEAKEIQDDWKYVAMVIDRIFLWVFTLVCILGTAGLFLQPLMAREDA
Sequence of human α3β4 nAChRs (P30926 22-498): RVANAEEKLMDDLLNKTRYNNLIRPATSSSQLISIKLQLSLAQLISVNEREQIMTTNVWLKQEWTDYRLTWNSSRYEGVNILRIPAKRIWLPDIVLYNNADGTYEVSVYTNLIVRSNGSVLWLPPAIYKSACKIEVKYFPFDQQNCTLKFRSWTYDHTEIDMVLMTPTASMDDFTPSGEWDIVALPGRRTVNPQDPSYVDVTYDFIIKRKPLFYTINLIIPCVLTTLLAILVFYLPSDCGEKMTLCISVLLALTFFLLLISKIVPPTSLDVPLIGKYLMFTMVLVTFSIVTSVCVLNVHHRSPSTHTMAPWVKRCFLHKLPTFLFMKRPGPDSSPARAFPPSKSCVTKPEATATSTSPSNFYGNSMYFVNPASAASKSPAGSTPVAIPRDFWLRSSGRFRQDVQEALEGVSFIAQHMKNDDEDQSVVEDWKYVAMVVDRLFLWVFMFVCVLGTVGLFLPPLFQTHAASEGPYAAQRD

CN[C@H]1CC[C@@H](c2ccc(Cl)c(Cl)c2)c2ccccc21 [sertraline, sertraline HCl, reference compound]
immobile time vs vehicle (Sprague-Dawley rats [1]; 20 mg/kg s.c.): significantly reduced immobile time

2-ethylidene-1,5,dimethyl-3,3-diphenylpyrrolidine perchlorate [EDDP]
open field locomotor activity (Sprague-Dawley rats [2]; 10mg/kg s.c.): neither EDDP nor EMDP significantly altered open field locomotor activity
Straub tail effects (Straub tail observation): failed to observe any Straub tail effects
marbles buried vs vehicle ([3]; 5 mg/kg i.p.): buried significantly fewer marbles
marbles buried vs vehicle ([3]; 10 mg/kg i.p.): did not reach statistical significance
fold lower affinity than methadone [4, 9]: ~ 83 fold
fraction of binding sites competed for [4, 9]: nearly all of the binding sites
analgesia in the tail-flick assay [5]: neither compound produces analgesia
block of rat α3β4 nAChR channels (rat α3β4 nAChRs): potently block
immobile time vs vehicle (Sprague-Dawley rats [1]; 10 mg/kg s.c.): without effect
duration of immobility vs vehicle ([6]; mouse, 1, 5, or 10 mg/kg i.p.): did not produce a significant effect on duration of immobility

CNC1(C)C2CCC(C2)C1(C)C (centres unmarked) [Mecamylamine, Mecamylamine HCl]
onset of ptosis after injection (Sprague-Dawley rats [7]; 5 mg/kg): ≤ 15 min
ptosis observed during forced swim tests (Sprague-Dawley rats [7]; 5 mg/kg): obvious ptosis
ptosis over 3h observation (Sprague-Dawley rats [7]; 5 mg/kg, significant at 30 and 45 min, not at 3 h): produced ptosis in a time-dependent manner
immobile time vs vehicle (Sprague-Dawley rats [1]; 5 mg/kg s.c.): reduced immobile time

CNC1=Nc2ccc(Cl)cc2C(c2ccccc2)=[N+]([O-])C1 [CDP, chlordiazepoxide HCl, reference compound]
marbles buried vs vehicle ([3]; 10 mg/kg i.p.): buried significantly fewer marbles

CCC1=NC(C)CC1(c1ccccc1)c1ccccc1.Cl (centres unmarked) [EMDP, 2-ethyl-5-methyl-3,3,-diphenyl-1-pyrroline hydrochloride]
open field locomotor activity (Sprague-Dawley rats [2]; 5mg/kg s.c.): neither EDDP nor EMDP significantly altered open field locomotor activity
Straub tail effects (Straub tail observation): failed to observe any Straub tail effects
marbles buried vs vehicle ([3]; 1 mg/kg i.p.): not at the 1 mg/kg dose
marbles buried vs vehicle ([3]; 5 mg/kg i.p.): buried significantly fewer marbles
marbles buried vs vehicle ([3]; 10 mg/kg i.p.): buried significantly fewer marbles
Ki ([4]; 2 nM [3H]-naloxone, rat forebrain, single-site fit): 21 µM
fold lower affinity than methadone [4, 9]: 1900 fold and ~ 1900 fold
sites competed for ([4]; even at a concentration of 100 μM): 60%
analgesia in the tail-flick assay [5]: neither compound produces analgesia
potency relative to mecamylamine in blocking rat α3β4 nAChRs (rat α3β4 nAChRs; ref Xiao et al): only one-sixth as potent
block of rat α3β4 nAChR channels (rat α3β4 nAChRs): potently block
ptosis over 3h observation (Sprague-Dawley rats [7]; 20 mg/kg): ptosis was not apparent at any time
ptosis observed during forced swim tests (Sprague-Dawley rats [7]; 10 and 20 mg/kg): did not produce ptosis
immobile time vs vehicle (Sprague-Dawley rats [1]; 10 mg/kg s.c.): reduced immobile time
immobile time vs vehicle (Sprague-Dawley rats [1]; 20 mg/kg s.c.): reduced immobile time
potency relative to mecamylamine in blocking human α3β4 nAChRs (human α3β4 nAChRs): only half as potent as mecamylamine
overall locomotor activity [8]: did not significantly affect overall locomotor activity
immobility time vs vehicle ([6]; 5 mg/kg i.p.): did not affect immobility time
immobility time vs vehicle ([6]; 10 mg/kg i.p.): significantly reduced it

From paper PMC4681651 (Neuropharmacology, 2015)
